From US20120189564A1, “COMPOSITIONS OF VITAMIN C DERIVATIVE AND PORTULACA EXTRACT” (PRESPERSE CORPORATION, priority 2011, published 2012) come the findings set out here.

This assay concerns B16-F10 melanoma cells. The assay can be described thus: Melanin formation inhibition (without UV stress) in B16-F10 melanoma cells. In kind it is cell-based. As to the method: Experiments were conducted to evaluate suppression of melanin synthesis using B16 melanoma cells by Portulaca Extract, ASG and Portulaca/ASG blend with and without UV stress at different levels. These experiments were performed to quantify skin whitening effects of the blend versus the individual components of the blend. Test (I)—Melanin Formation Inhibition (without UV Stress) Two sets of B16-F10 melanoma cells (ATCC 6475) were seeded at 6 well multi-plates with 1×10^5 density and cultured in Culbecco's Modified Eagle's Medium (DMEM) supplemented 10% fetal bovine serum (FBS) at 37° C. for 24 hours. The medium was exchanged with fresh DMEM media containing 10% FBS and test samples were added and cultured for 72 hours at 37° C. One set of cultured cells was washed with 2 ml of PBS (phosphate buffered saline) and cells were dissolved by 250 ul of 1N NaOH and melanin content was measured by UV absorbance at 450 nm. The other set of cells was incubated after adding 200 ul of MTT (2.5 mg/ml) at 37° C. for 4 hours. Culture medium was discarded and cells were dissolved for 10 minutes at room temperature by adding 2 ml of DMSO. After the cells were completely dissolved, UV absorbance was measured at 570 nm. […] [table]

On to `O=C1O[C@H]([C@H](O)CO)C(O)=C1O[C@H]1O[C@H](CO)[C@@H](O)[C@H](O)[C@H]1O` [ASG, 2-0-α-D-glucopyranosyl-L-ascorbic acid], for which the melanin formation inhibition entry (1.2% of ASG, 72 hours, FIGS. 1 and 2) is recorded as “about 20%”. In addition, the “melanin formation inhibition (result in words)” value (B16-F10 cells, concentration series of Table 2) was “melanin formation inhibition in a dose dependent manner”.
